The numbers were not newly measured in the CATMoS acute toxicity set (Mansouri et al. 2021), which cites them from elsewhere.

“And” between values parts separate entries of the source, which are not always exact repeats. Equal entries are not always repeated.

Broadly, the LD50 is the dose expected to kill half of the subjects tested.

The data set in a line: rat acute oral toxicity. The following applies: in vivo.
As to `COc1ccc(CCNCC(O)COc2ccc(OCC(C)=O)c3c2CCC(=O)N3)cc1OC` (stereo not given), the LD50 is 1260 mg/kg.

As for `COc1cc2nc(N3CCC(N(C)C(=O)c4ccccc4)CC3)nc(N)c2cc1OC`, the LD50 is 1000 mg/kg.

As for `Oc1cc(Cl)c(Cl)cc1Cl`, the LD50 was 1620 mg/kg.

On to `CN(C)CC(=O)O`, for which the 50% lethal dose (LD50) was 3900 mg/kg.

With `C=CC(=O)NCNC(=O)C=C`, the LD50 is 390 mg/kg.

With `N#CC(=Cc1ccc(Cl)cc1Cl)C(=O)O`, the LD50 was 50 mg/kg.

As for `NC(=O)OCCCc1ccccc1`, the LD50 is 1110 mg/kg.

Regarding `O=P(O)(O)Oc1ccccc1`, the LD50 is 2290 mg/kg.

Consider `CCCCC(CC)CCC(CC(C)C)OS(=O)(=O)O` (stereo not given), for which the LD50 was 1250 mg/kg.

Take `Cc1ncc(CO)c(CO)c1O`: the LD50 is 4000 mg/kg.

Consider `CCCCCCc1ccc(O)cc1O`, for which the LD50 is 550 mg/kg.

On to `CC(OCCCl)OCCCl`, for which the LD50 is 310 mg/kg.

With `c1ccc(N2CCNCC2)cc1`, the LD50 was 210 mg/kg.

In the case of `CC(C)(C)/N=C(\NC#N)Nc1cccnc1`, the LD50 is 278 mg/kg.

In the case of `CCCCCCCCCCCCCCCCOCCOCCOCCOCCOCCOCCOCCOCCOCCOCCOCCOCCOCCOCCOCCOCCOCCOCCOCCOCCO`, the LD50 is 2500 mg/kg.

As for `O=C(c1cc2ccccc2o1)N1CCN(Cc2ccccc2)CC1`, the LD50 is 2530 mg/kg.

With `COc1ccccc1OC(=O)CNC(=O)Cc1ccc(C(=O)c2ccc(C)cc2)n1C`, the LD50 is 1450 mg/kg.

Take `CSN(C)C(=O)Oc1cccc2c1OC(C)(C)C2`: the LD50 was 5 mg/kg.

Consider `CCOCCOCCOC(C)=O`, for which the LD50 is 11000 mg/kg.

Take `Cc1nc(C)c(C(=O)Nc2ccccc2)s1`: the 50% lethal dose (LD50) was 3930 mg/kg.

As to `CNC(=O)N(C)N=O`, the LD50 was 280 mg/kg.

Take `CCN1CN(CO)C(=O)N(CO)C1`: the LD50 was 8220 mg/kg.

Turning to `CCCCNc1ccccc1`, the LD50 was 1620 mg/kg.

As for `O=C(O)c1ccccc1Nc1cc(Cl)ccc1C(=O)O`, the LD50 is 1150 mg/kg.

For the compound `Cc1cc(Cl)ccc1OCC(=O)O`, the LD50 is 1200 mg/kg and 800 mg/kg.

On to `CNC(=O)ON=C1SCSC1(C)C`, for which the LD50 was 0.67 mg/kg.

Turning to `CCOP(=S)(OCC)SCC`, the LD50 is 80 mg/kg.

Take `CCNc1nc(=O)nc(NC(C)(C)C(=O)O)[nH]1`: the LD50 is 789 mg/kg.

`O=C1CCc2cc(C(=O)CCCN3CC=C(c4ccc(Cl)cc4)CC3)ccc2N1`: the LD50 was 500 mg/kg.

Take `CCCCCCCCCCCCCCOC(=O)Cc1ccc(N(CCCl)CCCl)cc1`: the median lethal dose (LD50) was 46 mg/kg.

On to `Cc1ccc2[nH]c(=S)[nH]c2c1`, for which the median lethal dose (LD50) was 340 mg/kg.

As for `CCC(C)c1cc([N+](=O)[O-])cc([N+](=O)[O-])c1OC(=O)OC(C)C` (stereo not given), the LD50 was 59 mg/kg.

Turning to `CCCCOCC(C)OCC(C)OCC(C)O` (stereo not given), the LD50 is 1840 mg/kg.

`CC(=O)CCc1ccc(-c2ccccc2)cc1`: the LD50 is 1030 mg/kg.

Regarding `C=CCNCC=C`, the LD50 is 578 mg/kg.

For the compound `FC(F)(F)c1nc2c(Cl)cc(Cl)c(Cl)c2[nH]1`, the LD50 is 6.33 mg/kg.

Regarding `CCC(C)C(CC)C(N)=O` (stereo not given), the LD50 is 760 mg/kg.

For `CCCC(C)C1(CC)C(=O)N=C(S)NC1=O` (stereo not given), the LD50 was 117 mg/kg.

Turning to `CCCCC(CC)COC(=O)c1ccccc1C(=O)OCc1ccccc1` (stereo not given), the LD50 was 60000 mg/kg.

For `CC(=O)Oc1ccc(Oc2c(I)cc(C(=O)O)cc2I)cc1I`, the LD50 was 4600 mg/kg.

On to `Oc1ccc(NCc2ccccc2)cc1`, for which the LD50 is 400 mg/kg.

As for `O=c1nn[nH]c2ccccc12`, the LD50 was 595 mg/kg.

`CC(Oc1cccc2ccccc12)C(N)=NO` (stereo not given): the LD50 was 90 mg/kg.

Turning to `O=C(O)c1ccc(C(=O)O)c2c(C(=O)O)ccc(C(=O)O)c12`, the LD50 was 7500 mg/kg.

With `CCC(C)c1ccc(Cl)c(OC(=O)NC)c1` (stereo not given), the LD50 is 50 mg/kg.

In the case of `CCCCN(CCCC)CCCC`, the LD50 is 114 mg/kg.

For the compound `CCN(CC)C(=O)c1nnn(-c2ccc(N)cc2)c1C`, the LD50 is 494 mg/kg.

As for `CC(C)CCOC(CO)CC(C)C` (stereo not given), the LD50 was 5410 mg/kg.

For the compound `O=C(O)C(Br)Br`, the LD50 was 1740 mg/kg.

For the compound `OC(c1ccccc1)C1CCCCC1` (stereo not given), the LD50 was 9300 mg/kg.

For `N#CS/C=C/SC#N`, the median lethal dose (LD50) is 77 mg/kg.

`CCCCCCCCCCCCCCCCCC(=O)NC(CCC(=O)O)C(=O)O` (stereo not given): the LD50 was 3000 mg/kg.

On to `CCn1c2c(c3cccc(N)c31)CCCC2`, for which the LD50 was 1090 mg/kg.

Turning to `CC(C)CCCC1CCC(C)(C(=O)NCC(=O)O)CC1` (stereo not given), the LD50 is 10300 mg/kg.

For the compound `CCN(CC)C(=S)N/N=C/c1ccc([N+](=O)[O-])o1`, the LD50 is 750 mg/kg.

On to `Cn1cc[nH]c1=S`, for which the LD50 is 2250 mg/kg.

On to `NCC1CCC=CO1` (stereo not given), for which the 50% lethal dose (LD50) is 1000 mg/kg.

As to `COc1ccc(N)c(OC)c1`, the LD50 was 464 mg/kg.

As to `COc1ccc2c(c1)c(CC(=O)Oc1cccc(C)c1)c(C)n2C(=O)c1ccc(Cl)cc1`, the LD50 was 98 mg/kg.

On to `CCC1C(C)=NN=C(c2ccc(OC)c(OC)c2)c2cc(OC)c(OC)cc21` (stereo not given), for which the LD50 is 825 mg/kg.
